From patent publication US11491134B2, “Composition for inhibiting skin cell proliferation and/or anti-inflammation method for inhibiting skin cell proliferation and/or anti-inflammation and method for treating skin diseases and/or inflammatory diseases” (Industrial Technology Research Institute, priority 2019, dated 2022)

System: macrophages, RAW264.7 cells
Test: Inhibition rate on inflammation (anti-inflammatory activity): nitric oxide, Griess reagent, LPS-treated macrophages
Format: cell-based
Conditions: Mus musculus; for inhibition at 1.5625 µM: apigenin 1.5625 μM/0.42 μg/mL; for inhibition at 3.125 µM: apigenin 3.125 μM/0.84 μg/mL; for inhibition at 6.25 µM: apigenin 6.25 μM/1.69 μg/mL; for inhibition at 12.5 µM: apigenin 12.5 μM/3.38 μg/mL; for inhibition at 25 µM: apigenin 25 μM/6.76 μg/mL; for inhibition at 50 µM: apigenin 50 μM/13.51 μg/mL; for inhibition at 0.625 µM: apigenin 0.625 μM/0.17 μg/mL; for inhibition at 1.25 µM: apigenin 1.25 μM/0.34 μg/mL; for inhibition at 2.5 µM: apigenin 2.5 μM/0.68 μg/mL; for inhibition at 5 µM: apigenin 5 μM/1.35 μg/mL; for inhibition at 10 µM: apigenin 10 μM/2.70 μg/mL; for inhibition at 0.3125 µM: apigenin 0.3125 μM/0.08 μg/mL
Procedure: Dimethyl sulfoxide (DMSO) was used as a solvent to prepare apigenin test samples with different concentrations and luteolin test samples with different concentrations. 9 batches of experiments were performed, which respectively were Batch 1 to Batch 9. There were 6 independent experiments in each batch of experiments. In each independent experiment, inhibition rate of an apigenin test sample with a specific concentration on inflammation and inhibition rate of a luteolin test sample with a specific concentration on inflammation were determined, and inhibition rate of a combination of an apigenin test sample with the said specific concentration and a luteolin test sample with the said specific concentration on inflammation was determined. Between the independent experiments, concentrations of apigenin test samples used were different, and concentrations of luteolin test samples used were also different, however, mole ratios or weight ratios of apigenin test samples to luteolin test samples were the same. Moreover, between the batches of experiments, mole ratios or weight ratios of apigenin test samples to luteolin test samples were different. 5×10^4 macrophages, RAW264.7 cells, were inoculated in a 96-well culture plate and then placed in a 37° C. and 5% CO2 incubator for culturing overnight. After overnight culture, the supernatant was removed, and lipopolysaccharide (LPS) (50 ng/mL) and a test sample was added to the cells (refer to Table 2, and the cells of the induced group were treated with lipopolysaccharide and dimethyl sulfoxide while the cells of the control group were only treated with dimethyl sulfoxide) for reaction for 24 hours. Thereafter, the supernatant of each well in the culture plate was transferred to a new culture plate and reacted with Griess reagent (Promega, Cat. No. G2930), respectively, and then the absorbance of each well of the culture plate was determined at 540 nm by a continuous wavelength microplate reader to evaluate the content of nitric oxide (NO), and anti-inflammatory activity was calculated through the following formula: Anti-inflammation=(Induced group540 nm−Experimental group540 nm)/(Induced group540 nm−Control group540 nm) In this experiment, the synergistic effects of apigenin and luteolin were evaluated by CalcuSyn software (BIOSOFT). CalcuSyn software is an analysis software which is commonly used to analyze the drug dosage effect of single drug and multiple drugs at present. CalcuSyn software can be used to analyze drug complex interactions and automatically quantify various phenomena such as synergism and inhibition. CalcuSyn software can process the data of individual drugs and combination drugs with constant-ratio or on-constant-ratio, and can evaluate the interaction of combination drugs by the combination index (CI) (Chou and Talalay, Adv. Enzyme Regul. 22:27-55 (1984) calculated by CalcuSyn software. Calculation formula for the combination index is shown in the following: Combination index=C1/IC1+C2/IC2 C1 and C2 are the respective concentrations of the first compound and the second compound at which the activity of achieving a specific physiological or medical purpose is 50% (or 75%, or 90%) when the first compound and the second compound are analyzed in combination; IC1 and IC2 are the respective concentrations at which the activity of achieving a specific physiological or medical purpose of the first compound and the second compound is 50% (or 75%, or 90%) when the first compound and the second compound are independently analyzed. […]

Compound: O=c1cc(-c2ccc(O)cc2)oc2cc(O)cc(O)c12 [Apigenin, apigenin]
- inhibition at 1.5625 µM (RAW264.7, Batch 1): 1.1%
- inhibition at 3.125 µM (RAW264.7, Batch 1): 7%
- inhibition at 6.25 µM (RAW264.7, Batch 1): 26.3%
- inhibition at 12.5 µM (RAW264.7, Batch 1): 48.1%
- inhibition at 25 µM (RAW264.7, Batch 1): 78.7%
- inhibition at 50 µM (RAW264.7, Batch 1): 99.9%
- inhibition at 1.5625 µM (RAW264.7, Batch 2): 2%
- inhibition at 3.125 µM (RAW264.7, Batch 2): 16.6%
- inhibition at 6.25 µM (RAW264.7, Batch 2): 23.7%
- inhibition at 12.5 µM (RAW264.7, Batch 2): 32.9%
- inhibition at 25 µM (RAW264.7, Batch 2): 74.1%
- inhibition at 50 µM (RAW264.7, Batch 2): 99.9%
- inhibition at 1.5625 µM (RAW264.7, Batch 3): 0.1%
- inhibition at 3.125 µM (RAW264.7, Batch 3): 0.9%
- inhibition at 6.25 µM (RAW264.7, Batch 3): 20.2%
- inhibition at 12.5 µM (RAW264.7, Batch 3): 57.9%
- inhibition at 25 µM (RAW264.7, Batch 3): 93.8%
- inhibition at 50 µM (RAW264.7, Batch 3): 99.5%
- inhibition at 1.5625 µM (RAW264.7, Batch 4): 0.1%
- inhibition at 3.125 µM (RAW264.7, Batch 4): 0.1%
- inhibition at 6.25 µM (RAW264.7, Batch 4): 12%
- inhibition at 12.5 µM (RAW264.7, Batch 4): 45.4%
- inhibition at 25 µM (RAW264.7, Batch 4): 93.4%
- inhibition at 50 µM (RAW264.7, Batch 4): 99.9%
- inhibition at 1.5625 µM (RAW264.7, Batch 5): 3.4%
- inhibition at 3.125 µM (RAW264.7, Batch 5): 11.2%
- inhibition at 6.25 µM (RAW264.7, Batch 5): 27.9%
- inhibition at 12.5 µM (RAW264.7, Batch 5): 59.5%
- inhibition at 25 µM (RAW264.7, Batch 5): 92.7%
- inhibition at 50 µM (RAW264.7, Batch 5): 97.6%
- inhibition at 1.5625 µM (RAW264.7, Batch 6): 18.9%
- inhibition at 3.125 µM (RAW264.7, Batch 6): 7.4%
- inhibition at 6.25 µM (RAW264.7, Batch 6): 28.9%
- inhibition at 12.5 µM (RAW264.7, Batch 6): 59.4%
- inhibition at 25 µM (RAW264.7, Batch 6): 97.2%
- inhibition at 50 µM (RAW264.7, Batch 6): 99.9%
- inhibition at 0.625 µM (RAW264.7, Batch 7): 0.1%
- inhibition at 1.25 µM (RAW264.7, Batch 7): 0.1%
- inhibition at 2.5 µM (RAW264.7, Batch 7): 3.2%
- inhibition at 5 µM (RAW264.7, Batch 7): 30%
- inhibition at 10 µM (RAW264.7, Batch 7): 65.3%
- inhibition at 20 µM (RAW264.7, Batch 7, apigenin 20 μM/5.40 μg/mL): 96%
- inhibition at 0.3125 µM (RAW264.7, Batch 8): 0.1%
- inhibition at 0.625 µM (RAW264.7, Batch 8): 0.1%
- inhibition at 1.25 µM (RAW264.7, Batch 8): 0.1%
- inhibition at 2.5 µM (RAW264.7, Batch 8): 0.6%
- inhibition at 5 µM (RAW264.7, Batch 8): 20.6%
- inhibition at 10 µM (RAW264.7, Batch 8): 51%
- inhibition at 0.078 µM (RAW264.7, Batch 9, apigenin 0.078 μM/0.02 μg/mL): 2%
- inhibition at 0.156 µM (RAW264.7, Batch 9, apigenin 0.156 μM/0.04 μg/mL): 0.2%
- inhibition at 0.3125 µM (RAW264.7, Batch 9): 10.4%
- inhibition at 0.625 µM (RAW264.7, Batch 9): 6.5%
- inhibition at 1.25 µM (RAW264.7, Batch 9): 6.5%
- inhibition at 2.5 µM (RAW264.7, Batch 9): 14.9%
